Blank lines part the entries; values can stand above or below the compound they belong to.
Experiments:
Coagulation factor X [1] = molecular target: T1, Coagulation factor X (Homo sapiens, UniProt P00742); test: Concentration required for inhibition of Coagulation factor X
[2] = Oral bioavailability in rat; assay type: ADME, organism-based; conditions: in vivo
[3] = Volume distribution in rats; assay type: ADME, organism-based; conditions: rat, in vivo; read-out: Vz
[4] = Half life in rats in hours; assay type: ADME, organism-based; conditions: rat, in vivo
[5] = Plasma clearance in rats; assay type: ADME, organism-based; conditions: rat
Serine protease 1 = Serine protease 1 (Homo sapiens, UniProt P07477); test: Concentration required for inhibition of trypsin
[6] = Oral bioavailability in ratrs; assay type: ADME, organism-based; conditions: rat, in vivo
Coagulation factor X [7] = molecular target: T1, Coagulation factor X; test: Binding affinity towards Coagulation factor X
Prothrombin = Prothrombin (Homo sapiens, UniProt P00734); test: Concentration required for inhibition of Coagulation factor II
Oryctolagus cuniculus = organism: Oryctolagus cuniculus; test: Antithrombotic activity was evaluated by using rabbit PT assay; assay type: functional
[8] = Plasma clearance in dogs; assay type: ADME, organism-based, Canis lupus familiaris; conditions: dog
[9] = Volume distribution in dogs; assay type: ADME, organism-based, Canis lupus familiaris; conditions: dog, in vivo; read-out: Vz
[10] = Oral bioavailability in dog; assay type: ADME, organism-based, Canis lupus familiaris; conditions: in vivo
[11] = Half life in dogs in hours; assay type: ADME, organism-based, Canis lupus familiaris; conditions: dog, in vivo

Chain of Serine protease 1 (P07477 whole entry): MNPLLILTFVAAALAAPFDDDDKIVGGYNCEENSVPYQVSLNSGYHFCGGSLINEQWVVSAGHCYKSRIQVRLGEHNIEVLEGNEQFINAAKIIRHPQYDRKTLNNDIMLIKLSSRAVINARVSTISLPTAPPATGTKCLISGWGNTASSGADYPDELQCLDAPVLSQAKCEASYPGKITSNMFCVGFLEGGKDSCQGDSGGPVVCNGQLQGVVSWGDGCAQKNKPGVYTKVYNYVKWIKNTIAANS
T1 sequence (P00742 41-179 limits assumed): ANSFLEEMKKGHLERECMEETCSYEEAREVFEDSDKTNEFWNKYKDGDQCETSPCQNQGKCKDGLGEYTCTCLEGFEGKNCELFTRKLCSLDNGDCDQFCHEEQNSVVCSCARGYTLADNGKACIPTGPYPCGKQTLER
T1 sequence (P00742 235-488 limits assumed): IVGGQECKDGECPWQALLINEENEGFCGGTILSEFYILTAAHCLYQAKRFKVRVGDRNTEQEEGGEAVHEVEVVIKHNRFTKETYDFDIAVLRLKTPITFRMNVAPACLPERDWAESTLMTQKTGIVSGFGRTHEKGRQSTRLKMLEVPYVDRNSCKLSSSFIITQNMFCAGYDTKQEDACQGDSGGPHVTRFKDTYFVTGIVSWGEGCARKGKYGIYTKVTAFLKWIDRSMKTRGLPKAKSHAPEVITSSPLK

Structure (SMILES): C/C(=C(\F)C(=O)Nc1ccc(-c2ccncc2[S+](C)[O-])cc1F)c1ccc2ccnc(N)c2c1 (configuration not stated)
- IC50 (Coagulation factor X [1]): 1500 nM

Structure (SMILES): C/C(=C(\F)C(=O)Nc1ccc(-c2ccccc2S(N)(=O)=O)cc1)c1cccc(NN)c1
- IC50 (Coagulation factor X [1]): > 11000 nM

Structure (SMILES): Nc1nccc2ccc(/C=C\C(=O)Nc3ccc(-c4ccccc4S(N)(=O)=O)cc3)cc12
- bioavailability [2]: 1.5%
- IC50 (Coagulation factor X [1]): 78 nM
- Vd [3]: 7.4 L/kg
- half-life [4]: 1.51 h
- clearance [5]: 56.4 mL/min/kg

Structure (SMILES): C/C(=C(\F)C(=O)Nc1ccc(-c2ccncc2S(C)(=O)=O)cc1)c1ccc2ccnc(N)c2c1
- IC50 (Coagulation factor X [1]): 7 nM

Structure (SMILES): C/C(=C(\F)C(=O)Nc1ccc(-c2ccccc2S(N)(=O)=O)cc1Br)c1cc(Br)ccc1N
- IC50 (Coagulation factor X [1]): > 11000 nM

Structure (SMILES): C/C(Cc1ccc(Br)cc1)=C(\F)C(=O)Nc1ccc(-c2ccccc2S(N)(=O)=O)cc1
- IC50 (Coagulation factor X [1]): 1800 nM

Structure (SMILES): C/C(=C(\F)C(=O)Nc1ccc(-c2ccccc2S(N)(=O)=O)cc1Br)c1ccc2ccnc(N)c2c1
- IC50 (Serine protease 1): 2400 nM
- clearance [8]: 10.8 mL/min/kg
- bioavailability [2]: 30.1%
- IC50 (Coagulation factor X [1]): 7 nM
- Ki (Coagulation factor X [7]): 1.3 nM
- Vd [9]: 5.5 L/kg
- Vd [3]: 0.61 L/kg
- half-life [4]: 1.6 h
- IC50 (Prothrombin): 4800 nM
- clearance [5]: 4.4 mL/min/kg
- bioavailability [10]: 33.1%
- half-life [11]: 6 h
- Activity (Oryctolagus cuniculus): 10.3 µM

Structure (SMILES): C/C(=C(\F)C(=O)Nc1ccc(-c2ccccc2S(N)(=O)=O)cc1)c1cc(Cl)ccc1C#N
- IC50 (Coagulation factor X [1]): 9500 nM

Structure (SMILES): C/C(=C(\F)C(=O)Nc1ccc(-c2ccccc2S(N)(=O)=O)cc1)c1ccc2ccnc(N)c2c1
- clearance [8]: 11.4 mL/min/kg
- bioavailability [2]: 6.8%
- IC50 (Coagulation factor X [1]): 14 nM
- Vd [9]: 6.8 L/kg
- Vd [3]: 10 L/kg
- half-life [4]: 2.38 h
- clearance [5]: 48.7 mL/min/kg
- bioavailability [10]: 36.7%
- half-life [11]: 7.1 h

Structure (SMILES): C/C(=C(\F)C(=O)Nc1ccc(-c2ccccc2S(N)(=O)=O)cc1Br)c1cc(Br)ccc1[N+](=O)[O-]
- IC50 (Coagulation factor X [1]): 2900 nM

Structure (SMILES): C/C(=C(/F)C(=O)Nc1ccc(-c2ccccc2S(N)(=O)=O)cc1)c1ccc2ncnc(N)c2c1
- IC50 (Coagulation factor X [1]): 270 nM

Structure (SMILES): C/C(=C(\F)C(=O)Nc1ccc(-c2ccccc2S(N)(=O)=O)cn1)c1ccc2ccnc(N)c2c1
- bioavailability [2]: 13%
- IC50 (Coagulation factor X [1]): 14 nM
- Vd [3]: 2.7 L/kg
- half-life [4]: 1.64 h
- clearance [5]: 19.1 mL/min/kg

Structure (SMILES): C/C(=C(\F)C(=O)Nc1ccc(-c2ccccc2S(N)(=O)=O)cc1)c1cccc(C(N)=O)c1
- IC50 (Coagulation factor X [1]): 920 nM

Now from value to compound, other results behind:

- IC50 (Coagulation factor X [1]): > 11000 nM
Structure (SMILES): C/C(=C(/F)C(=O)Nc1ccc(-c2ccccc2S(N)(=O)=O)cc1)c1ccc2nc(N)nc(N)c2c1

- IC50 (Coagulation factor X [1]): > 11000 nM
Structure (SMILES): C/C(=C(\F)C(=O)Nc1ccc(-c2ccccc2S(N)(=O)=O)cc1)c1cccc(N)c1

- IC50 (Serine protease 1): > 11000 nM
- bioavailability [6]: 35.1%
- IC50 (Coagulation factor X [1]): 11 nM
- Ki (Coagulation factor X [7]): 1.1 nM
- Vd [3]: 0.8 L/kg
- half-life [4]: 1.43 h
- IC50 (Prothrombin): 5400 nM
- clearance [5]: 6.7 mL/min/kg
Structure (SMILES): C/C(=C(\F)C(=O)Nc1ccc(-c2ccccc2S(N)(=O)=O)cc1Cl)c1ccc2ccnc(N)c2c1
- Activity (Oryctolagus cuniculus): 9.4 µM

- IC50 (Coagulation factor X [1]): 180 nM
Structure (SMILES): C/C(=C(\F)C(=O)Nc1ccc(-c2ccnc(C(N)=O)c2)cc1)c1ccc2ccnc(N)c2c1

- IC50 (Coagulation factor X [1]): 140 nM
Structure (SMILES): C/C(=C(\F)C(=O)Nc1ccc(-c2ccccc2S(N)(=O)=O)cc1F)c1cccc(C(=N)S)c1

- IC50 (Coagulation factor X [1]): 190 nM
Structure (SMILES): C/C(=C(\F)C(=O)Nc1ccc(-c2ccccc2C#N)cc1)c1ccc2ccnc(N)c2c1

- IC50 (Coagulation factor X [1]): 250 nM
Structure (SMILES): C/C(=C(\F)C(=O)Nc1ccc(-c2ccccc2S(N)(=O)=O)cc1)c1cc(N)ccc1[N+](=O)[O-]

- IC50 (Coagulation factor X [1]): 5700 nM
Structure (SMILES): COc1ccc(/C(C)=C(/F)C(=O)Nc2ccc(-c3ccccc3S(N)(=O)=O)cc2)c(C#N)c1

- IC50 (Coagulation factor X [1]): 880 nM
Structure (SMILES): C/C(=C(/F)C(=O)Nc1ccc(-c2ccccc2S(N)(=O)=O)cc1)c1ccc2ccnc(N)c2c1

- IC50 (Serine protease 1): 9700 nM
- bioavailability [2]: 13.5%
- IC50 (Coagulation factor X [1]): 5 nM
- Ki (Coagulation factor X [7]): 1.6 nM
- Vd [3]: 3.7 L/kg
- half-life [4]: 1.7 h
- IC50 (Prothrombin): 6300 nM
- clearance [5]: 25.3 mL/min/kg
Structure (SMILES): C/C(=C(\F)C(=O)Nc1ccc(-c2ccccc2S(N)(=O)=O)cc1F)c1ccc2ccnc(N)c2c1
- Activity (Oryctolagus cuniculus): 6.3 µM

Source: ChEMBL document CHEMBL1134849, “Substituted acrylamides as factor Xa inhibitors: improving bioavailability by P1 modification” (Bioorg Med Chem Lett, 2002)
